The target of assay [1] is T1, BRD4 Bromodomain 1 (BRD4 BD1) (Homo sapiens, UniProt O60885).
T1 construct: 44-168 and BRD4 BD2
In words: AlphaScreen binding assay, BRD4 BD1. Particulars: His-tagged BRD4 BD1 50 nM, biotinylated H4 (1-21) K5/8/12/16 tetra-acetylated peptide 50 nM, compounds listed under IC50 range headings. The procedure, abridged:
(§1)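 An AlphaScreen competition format was used with His-BRD4 BD1 or BD2 and biotin-H4 K5/8/12/16-acetyl peptide, each at matched final levels of 50 nM (BD1) or 100 nM (BD2). Incubation in HEPES/NaCl buffer with 0.1% BSA and 0.01% Triton X-100 ran ≥1 h before IC50 determination.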
For orientation: Alpha assays give light when donor and acceptor beads are brought close together.

For assay [2], the target named is T2, BRD4 Bromodomain 2 (BRD4 BD2) (Homo sapiens, UniProt O60885).
T2 construct: 333-460 were cloned, expressed, and purified to homogeneity
In words: AlphaScreen binding assay, BRD4 BD2. As to conditions: His-tagged BRD4 BD2 100 nM, biotinylated H4 (1-21) K5/8/12/16 tetra-acetylated peptide 100 nM, compounds listed under IC50 range headings. The procedure, abridged:
as §1

Assay [3] concerns acute myelocytic leukemia (AML) cell line MV4-11. Briefly: Oncology cell growth assay (3-day proliferation, CellTiter-Glo). The assay is classed as cell-based. As to conditions: Homo sapiens, MV4-11, 72 h, MV4-11 cells, 3000 cells/well, compounds listed under IC50 range headings, read-out: MV411 IC50 (gIC50, inhibition of proliferation). In short, it runs like this: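 MV4-11 AML cells (RPMI 1640, 10% FBS) plated at 3000 cells/well and exposed 72 h to compound at final 10 to 0.0045 μM (3-fold series). Viability read by CellTiter-Glo luminescence; gIC50 from four-parameter logistic fit between DMSO control and no-cell background.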
For orientation: Cellular ATP, detected with luciferase, serves as a proxy for viable cell number.

A value given as a limit tells only on which side of the number the result lay.

On to `COC(=O)N1c2ccc(-c3cnn(C4CCNCC4)c3)c(Oc3cccc(F)c3C#N)c2CC[C@@H]1C` [I-148, (S)-methyl 5-(2-cyano-3-fluorophenoxy)-2-methyl-6-(1-(piperidin-4-yl)-1H-pyrazol-4-yl)-3,4-dihydroquinoline-1(2H)-carboxylate], for which the IC50 is 0.1 to 1 µM in assay [1], less than 0.05 µM in assay [2] and less than 0.5 µM in assay [3].

Turning to `COC(=O)N1c2ccc(-c3cnn(C4CCNCC4)c3)c(Oc3cccc(Cl)c3C#N)c2CC[C@@H]1C` [I-149, (S)-methyl 5-(3-chloro-2-cyanophenoxy)-2-methyl-6-(1-(piperidin-4-yl)-1H-pyrazol-4-yl)-3,4-dihydroquinoline-1(2H)-carboxylate], the IC50 in assay [1] was 0.1 to 1 µM; in assay [2] it was less than 0.05 µM; in assay [3] it was less than 0.5 µM.

For the compound `C[C@H]1CCc2c(ccc(-c3cnn(C4CCNCC4)c3)c2Oc2ccccc2C#N)N1C(=O)C1CC1` [I-150, (S)-2-(1-(cyclopropanecarbonyl)-2-methyl-6-(1-(piperidin-4-yl)-1H-pyrazol-4-yl)-1,2,3,4-tetrahydroquinolin-5-yloxy)benzonitrile], the IC50 in assay [1] was 0.1 to 1 µM; in assay [2] it was less than 0.05 µM; in assay [3], less than 0.5 µM.

Consider `C[C@H]1CCc2c(ccc(-c3cnn(C4CCNCC4)c3)c2Oc2cccc(F)c2C#N)N1C(=O)C1CC1` [I-151, (S)-2-(1-(cyclopropanecarbonyl)-2-methyl-6-(1-(piperidin-4-yl)-1H-pyrazol-4-yl)-1,2,3,4-tetrahydroquinolin-5-yloxy)-6-fluorobenzonitrile], for which the figures for the IC50 in assay [1], in assay [2] and in assay [3] were 0.1 to 1 µM, less than 0.05 µM and less than 0.5 µM, respectively.

In the case of `C[C@H]1CCc2c(ccc(-c3cnn(C4CCNCC4)c3)c2Oc2ccc(C#N)cc2F)N1C(=O)C1CC1` [I-152, (S)-4-(1-(cyclopropanecarbonyl)-2-methyl-6-(1-(piperidin-4-yl)-1H-pyrazol-4-yl)-1,2,3,4-tetrahydroquinolin-5-yloxy)-3-fluorobenzonitrile], the IC50 was 0.1 to 1 µM in assay [1], less than 0.05 µM in assay [2] and less than 0.5 µM in assay [3].

`CC(=O)N1c2ccc(-c3cnn(C4CC4)c3)c(Oc3ccccc3C#N)c2CC[C@@H]1C` [I-153, (S)-2-(1-acetyl-6-(1-cyclopropyl-1H-pyrazol-4-yl)-2-methyl-1,2,3,4-tetrahydroquinolin-5-yloxy)benzonitrile]: the IC50 was 0.1 to 1 µM in assay [1], less than 0.05 µM in assay [2] and less than 0.5 µM in assay [3].

`CC(=O)N1c2ccc(-c3cnn(C4CCNCC4)c3)c(Oc3ccc(C(N)=O)cc3)c2CC[C@@H]1C` [I-155, (S)-4-(1-acetyl-2-methyl-6-(1-(piperidin-4-yl)-1H-pyrazol-4-yl)-1,2,3,4-tetrahydroquinolin-5-yloxy)benzamide]: the IC50 in assay [1] was 0.1 to 1 µM; in assay [2] it was 0.05 to 0.5 µM; in assay [3] it was greater than 1 µM.

On to `CC(=O)N1c2ccc(-c3cnn(C4CCNCC4)c3)c(Oc3ccccc3Cl)c2CC[C@@H]1C` [I-157, (S)-1-(5-(2-chlorophenoxy)-2-methyl-6-(1-(piperidin-4-yl)-1H-pyrazol-4-yl)-3,4-dihydroquinolin-1(2H)-yl)ethanone], for which the IC50 was 0.1 to 1 µM in assay [1], less than 0.05 µM in assay [2] and less than 0.5 µM in assay [3].

With `COC(=O)N1c2ccc(-c3cnn(C4CCNCC4)c3)c(Oc3ccc(F)cc3)c2CC[C@@H]1C` [I-158, (S)-methyl 5-(4-fluorophenoxy)-2-methyl-6-(1-(piperidin-4-yl)-1H-pyrazol-4-yl)-3,4-dihydroquinoline-1(2H)-carboxylate], the IC50 in assay [1] was 0.1 to 1 µM; in assay [2], less than 0.05 µM; in assay [3] it was less than 0.5 µM.

With `COC(=O)N1c2ccc(-c3cnn(C4CCNCC4)c3)c(Oc3ccc(Cl)cc3)c2CC[C@@H]1C` [I-159, (S)-methyl 5-(4-chlorophenoxy)-2-methyl-6-(1-(piperidin-4-yl)-1H-pyrazol-4-yl)-3,4-dihydroquinoline-1(2H)-carboxylate], the IC50 in assay [1] was 0.1 to 1 µM; in assay [2], less than 0.05 µM; in assay [3], less than 0.5 µM.

For the compound `COC(=O)N1c2ccc(-c3cnn(C4CCNCC4)c3)c(Oc3ccccc3Cl)c2CC[C@@H]1C` [I-160, (S)-methyl 5-(2-chlorophenoxy)-2-methyl-6-(1-(piperidin-4-yl)-1H-pyrazol-4-yl)-3,4-dihydroquinoline-1(2H)-carboxylate], the IC50 was 0.1 to 1 µM in assay [1], less than 0.05 µM in assay [2] and less than 0.5 µM in assay [3].

Turning to `COC(=O)N1c2ccc(-c3cnn(C4CCNCC4)c3)c(Oc3ccc(C(N)=O)cc3)c2CC[C@@H]1C` [I-161, (S)-methyl 5-(4-carbamoylphenoxy)-2-methyl-6-(1-(piperidin-4-yl)-1H-pyrazol-4-yl)-3,4-dihydroquinoline-1(2H)-carboxylate], the IC50 in assay [1] is 0.1 to 1 µM; in assay [2] it was less than 0.05 µM; in assay [3] it was greater than 1 µM.

`COC(=O)N1c2ccc(-c3cnn(C4CCNCC4)c3)c(Oc3ccc(F)c(C#N)c3)c2CC[C@@H]1C` [I-162, (S)-methyl 5-(3-cyano-4-fluorophenoxy)-2-methyl-6-(1-(piperidin-4-yl)-1H-pyrazol-4-yl)-3,4-dihydroquinoline-1(2H)-carboxylate]: the figures for the IC50 in assay [1], in assay [2] and in assay [3] were 0.1 to 1 µM, less than 0.05 µM and less than 0.5 µM, respectively.

With `COC(=O)N1c2ccc(-c3cnn(C4CCNCC4)c3)c(Oc3ccc(F)c(Cl)c3)c2CC[C@@H]1C` [I-163, (S)-methyl 5-(3-chloro-4-fluorophenoxy)-2-methyl-6-(1-(piperidin-4-yl)-1H-pyrazol-4-yl)-3,4-dihydroquinoline-1(2H)-carboxylate], the IC50 in assay [1] is 0.1 to 1 µM; in assay [2], less than 0.05 µM; in assay [3], less than 0.5 µM.

In the case of `C[C@H]1CCc2c(ccc(-c3cnn(C4CCNCC4)c3)c2Oc2ccc(F)cc2)N1C(=O)C1CC1` [I-164, (S)-cyclopropyl(5-(4-fluorophenoxy)-2-methyl-6-(1-(piperidin-4-yl)-1H-pyrazol-4-yl)-3,4-dihydroquinolin-1 (2H)-yl)methanone], the IC50 in assay [1] is 0.1 to 1 µM; in assay [2] it was less than 0.05 µM; in assay [3] it was less than 0.5 µM.

`C[C@H]1CCc2c(ccc(-c3cnn(C4CCNCC4)c3)c2Oc2ccc(Cl)cc2)N1C(=O)C1CC1` [I-166, (S)-(5-(4-chlorophenoxy)-2-methyl-6-(1-(piperidin-4-yl)-1H-pyrazol-4-yl)-3,4-dihydroquinolin-1(2H)-yl)(cyclopropyl)methanone]: the IC50 in assay [1] is 0.1 to 1 µM; in assay [2], less than 0.05 µM; in assay [3], less than 0.5 µM.

For the compound `C[C@H]1CCc2c(ccc(-c3cnn(C4CCNCC4)c3)c2Oc2ccc(C#N)cc2)N1C(=O)C1CC1` [I-167], the IC50 was 0.1 to 1 µM in assay [1], less than 0.05 µM in assay [2] and less than 0.5 µM in assay [3].

For the compound `C[C@H]1CCc2c(ccc(-c3cnn(C4CCNCC4)c3)c2Oc2ccccc2)N1C(=O)C1CC1` [I-168, (S)-cyclopropyl(2-methyl-5-phenoxy-6-(1-(piperidin-4-yl)-1H-pyrazol-4-yl)-3,4-dihydroquinolin-1(2H)-yl)methanone], the IC50 in assay [1] was 0.1 to 1 µM; in assay [2] it was less than 0.05 µM; in assay [3] it was less than 0.5 µM.

Turning to `C[C@H]1CCc2c(ccc(-c3cnn(C4CCNCC4)c3)c2Oc2ccc(F)c(Cl)c2)N1C(=O)C1CC1` [I-169, (S)-(5-(3-chloro-4-fluorophenoxy)-2-methyl-6-(1-(piperidin-4-yl)-1H-pyrazol-4-yl)-3,4-dihydroquinolin-1(2H)-yl)(cyclopropyl)methanone], the IC50 in assay [1] is 0.1 to 1 µM; in assay [2], less than 0.05 µM; in assay [3], less than 0.5 µM.

For the compound `C[C@H]1CCc2c(ccc(-c3cnn(C4CNC4)c3)c2Oc2ccc(F)cc2)N1C(=O)C1CC1` [I-170, (S)-(6-(1-(azetidin-3-yl)-1H-pyrazol-4-yl)-5-(4-fluorophenoxy)-2-methyl-3,4-dihydroquinolin-1 (2H)-yl)(cyclopropyl)methanone], the IC50 was 0.1 to 1 µM in assay [1], less than 0.05 µM in assay [2] and less than 0.5 µM in assay [3].

As for `COC(=O)N1c2ccc(-c3cnn(C4CCNC4)c3)c(Oc3ccc(F)cc3)c2CC[C@@H]1C` (stereo partly drawn) [I-185, (2S)-methyl 5-(4-fluorophenoxy)-2-methyl-6-(1-(pyrrolidin-3-yl)-1H-pyrazol-4-yl)-3,4-dihydroquinoline-1(2H)-carboxylate], the results for the IC50 in assay [1], in assay [2] and in assay [3] were 0.1 to 1 µM, less than 0.05 µM and less than 0.5 µM, respectively.

In the case of `COC(=O)N1c2ccc(-c3cnn(C4CCNCC4)c3)c(Oc3cccc(F)c3)c2CC[C@@H]1C` [I-188, Methyl (S)-5-(3-fluorophenoxy)-2-methyl-6-(1-(piperidin-4-yl)-1H-pyrazol-4-yl)-3,4-dihydroquinoline-1(2H)-carboxylate], the values for the IC50 in assay [1], in assay [2] and in assay [3] were 0.1 to 1 µM, less than 0.05 µM and less than 0.5 µM, respectively.

As to `COC(=O)N1c2ccc(-c3cnn(C4CCNCC4)c3)c(Oc3cccc(Cl)c3)c2CC[C@@H]1C` [I-189, Methyl (S)-5-(3-chlorophenoxy)-2-methyl-6-(1-(piperidin-4-yl)-1H-pyrazol-4-yl)-3,4-dihydroquinoline-1(2H)-carboxylate], the values for the IC50 in assay [1], in assay [2] and in assay [3] were 0.1 to 1 µM, less than 0.05 µM and less than 0.5 µM, respectively.

Values taken from patent publication US10611750B2, “Tetrahydroquinoline compositions as bet bromodomain inhibitors” (FORMA Therapeutics, Inc., priority 2013, dated 2020).
